Tested on: PDC KRAS tumor spheroids with HUVEC/MSC, viability
Assay: Anticancer human tumor 349418-098-R-PDC patient-derived lung adenocarcinoma cell line growth inhibition [KRAS2]
Conditions: for IC50: curve of first compound; for viability, T/C: stronger effect = lower value
How it was run: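 KRAS-mutant tumor cells were grown as spheroids with HUVEC endothelial cells and human MSCs as stroma. Targeted agents were tested alone and with KRAS pathway inhibitors. Doses started at or near clinical Cmax, or 10 microM, descending half-log.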

[1] = second compound 0.0316 µM, first compound 0.0316 µM
[2] = second compound 0.0316 µM, first compound 0.1 µM
[3] = second compound 0.0316 µM, first compound 0.316 µM
[4] = second compound 0.0316 µM, first compound 1 µM
[5] = second compound 0.0316 µM, first compound 3.16 µM
[6] = second compound 0.0316 µM, first compound 10 µM
[7] = second compound 0.1 µM, first compound 0.0316 µM
[8] = second compound 0.1 µM, first compound 0.1 µM
[9] = second compound 0.1 µM, first compound 0.316 µM
[10] = second compound 0.1 µM, first compound 1 µM
[11] = second compound 0.1 µM, first compound 3.16 µM
[12] = second compound 0.1 µM, first compound 10 µM
[13] = second compound 0.316 µM, first compound 0.0316 µM
[14] = second compound 0.316 µM, first compound 0.1 µM
[15] = second compound 0.316 µM, first compound 0.316 µM
[16] = second compound 0.316 µM, first compound 1 µM
[17] = second compound 0.316 µM, first compound 3.16 µM
[18] = second compound 0.316 µM, first compound 10 µM
[19] = second compound 1 µM, first compound 0.0316 µM
[20] = second compound 1 µM, first compound 0.1 µM
[21] = second compound 1 µM, first compound 0.316 µM
[22] = second compound 1 µM, first compound 1 µM
[23] = second compound 1 µM, first compound 3.16 µM
[24] = second compound 1 µM, first compound 10 µM
[25] = second compound 3.16 µM, first compound 0.0316 µM
[26] = second compound 3.16 µM, first compound 0.1 µM
[27] = second compound 3.16 µM, first compound 0.316 µM
[28] = second compound 3.16 µM, first compound 1 µM
[29] = second compound 3.16 µM, first compound 3.16 µM
[30] = second compound 3.16 µM, first compound 10 µM
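Further: spheroids exposed to compounds for seven days before readout.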

| SMILES | IC50 (second compound 0.0316 µM) | IC50 (second compound 0.1 µM) | IC50 (second compound 0.316 µM) | IC50 (second compound 1 µM) | IC50 (second compound 3.16 µM) | viability, T/C [1] | viability, T/C [2] | viability, T/C [3] | viability, T/C [4] | viability, T/C [5] | viability, T/C [6] | viability, T/C [7] | viability, T/C [8] | viability, T/C [9] | viability, T/C [10] | viability, T/C [11] | viability, T/C [12] | viability, T/C [13] | viability, T/C [14] | viability, T/C [15] | other results |
| --- | --- | --- | --- | --- | --- | --- | --- | --- | --- | --- | --- | --- | --- | --- | --- | --- | --- | --- | --- | --- | --- |
| COc1cc(Nc2ncc3c(n2)-c2ccc(Cl)cc2C(c2c(F)cccc2OC)=NC3)ccc1C(=O)O + C=CC(=O)N1CCN(c2nc(OCC3CCCN3C)nc3c2CCN(c2cccc4cccc(C)c24)C3)CC1CC#N | 0.041 µM | 0.0552 µM | < 0.0316 µM | < 0.0316 µM | < 0.0316 µM | 55.8% | 29.1% | 33.7% | 28.3% | 28.1% | 21.2% | 60.8% | 36.3% | 36.3% | 26.1% | 28.2% | 25.4% | 49.7% | 20.5% | 27.8% | viability, T/C [16]: 31.9%; viability, T/C [17]: 20.2%; viability, T/C [18]: 19.4%; viability, T/C [19]: 24%; viability, T/C [20]: 24%; viability, T/C [21]: 21.8%; viability, T/C [22]: 19.7%; viability, T/C [23]: 16.2%; viability, T/C [24]: 17%; viability, T/C [25]: 0.09%; viability, T/C [26]: 0.09%; viability, T/C [27]: 0.11%; viability, T/C [28]: 0.08%; viability, T/C [29]: 0.49%; viability, T/C [30]: 0.12% |
| COc1cc2nccc(Oc3ccc(NC(=O)C4(C(=O)Nc5ccc(F)cc5)CC4)cc3)c2cc1OC + C=CC(=O)N1CCN(c2nc(OCC3CCCN3C)nc3c2CCN(c2cccc4cccc(C)c24)C3)CC1CC#N | 1.56 µM | 1.57 µM | 1.53 µM | 0.588 µM | < 0.0316 µM | 96.3% | 96.9% | 92.2% | 72.5% | 10.1% | 19.4% | 88.5% | 95.8% | 93.7% | 74.6% | 7.5% | 15.7% | 93.2% | 88.6% | 85.3% | viability, T/C [16]: 72.8%; viability, T/C [17]: 7.47%; viability, T/C [18]: 15.3%; viability, T/C [19]: 73.5%; viability, T/C [20]: 79.7%; viability, T/C [21]: 68.4%; viability, T/C [22]: 33.7%; viability, T/C [23]: 1.78%; viability, T/C [24]: 0.85%; viability, T/C [25]: 0.14%; viability, T/C [26]: 0.28%; viability, T/C [27]: 0.29%; viability, T/C [28]: 0.22%; viability, T/C [29]: 0.19%; viability, T/C [30]: 0.14% |
